From patent publication US20040048834A1, “Antitumoral compounds” (priority 2000, published 2004)
Where a name gives a salt, the structure may show the parent alone. Read-outs that look alike come from different tables or passages of the source.

How the values were obtained:
Assay type in all cases: cell-based
HT29 = experiment: Cytotoxicity of spisulosine analogs, HT29 (after Berjeron et al)
A549 = experiment: Cytotoxicity of spisulosine analogs, A549 (after Berjeron et al)
MEL28 = experiment: Cytotoxicity of spisulosine analogs, MEL28 (after Berjeron et al)
P388 = experiment: Cytotoxicity of spisulosine analogs, P388 (after Berjeron et al)
DU145 = experiment: Cytotoxicity of spisulosine analogs, DU145 (after Berjeron et al)
[1] = HT29, methodology after Berjeron et al, NA=not active, hydrochloride, read-out: Cytotoxicity IC50 HT29
[2] = A549, methodology after Berjeron et al, NA=not active, hydrochloride, read-out: Cytotoxicity IC50 A549
[3] = HT29, methodology after Berjeron et al, NA=not active, read-out: Cytotoxicity IC50 HT29
[4] = A549, methodology after Berjeron et al, NA=not active, read-out: Cytotoxicity IC50 A549
[5] = Homo sapiens, SK-MEL-28, MEL28, methodology after Berjeron et al, NA=not active, read-out: Cytotoxicity IC50 MEL28
[6] = Mus musculus, P388, P388, methodology after Berjeron et al, NA=not active, read-out: Cytotoxicity IC50 P388
[7] = Homo sapiens, DU-145, DU145, methodology after Berjeron et al, NA=not active, read-out: Cytotoxicity IC50 DU145
[8] = Homo sapiens, HT-29, HT29, methodology after Berjeron et al, NA=not active, read-out: Cytotoxicity IC50 HT29
[9] = Homo sapiens, A549, A549, methodology after Berjeron et al, NA=not active, read-out: Cytotoxicity IC50 A549
[10] = MEL28, methodology after Berjeron et al, NA=not active, read-out: Cytotoxicity IC50 MEL28
[11] = P388, methodology after Berjeron et al, NA=not active, read-out: Cytotoxicity IC50 P388
[12] = DU145, methodology after Berjeron et al, NA=not active, read-out: Cytotoxicity IC50 DU145

SMILES: CCCCCCCCCCCCCCCCC[C@@H](O)[C@H](C)N [drawing 51, (2S,3R)-2-Amino-3-eicosanol hydrochloride]
- IC50 (HT29; [1]): 14.3 nM
- IC50 (A549; [2]): 14.3 nM

SMILES: CCCCCCCCCCCCCCC[C@@H](N)[C@H](C)N
- IC50 (HT29; [3]): 1400 nM
- IC50 (A549; [4]): 1400 nM

SMILES: CCCCCCCCCCCCCCCC[C@@H](O)[C@@H](N)CC [drawing 61, (3S,4R)-3-Amino-4-eicosanol hydrochloride]
- IC50 (HT29; [1]): 28.6 nM
- IC50 (A549; [2]): 28.6 nM

SMILES: CCCCCCCCCCCCCCC[C@@H](O)[C@@H](N)CC [drawing 58, (3S,4R)-3-Amino-4-nonadecanol]
- IC50 (MEL28; [5]): 334 nM
- IC50 (HT29; [3]): 33.4 nM
- IC50 (P388; [6]): 33.4 nM
- IC50 (A549; [4]): 33.4 nM
- IC50 (DU145; [7]): 33.4 nM

SMILES: CCCCCCCCCCCCCCC[C@@H](OC)[C@H](C)N [(2S,3R)-2-Amino-3-(methoxy)-octadecane]
- IC50 (HT29; [8]): 1670 nM
- IC50 (A549; [9]): 1670 nM

SMILES: CCCCCCCCCCCCCCC[C@@H](O)[C@@H](N)CF [drawing 111]
- IC50 (MEL28; [10]): 329 nM
- IC50 (HT29; [3]): 32.9 nM
- IC50 (P388; [11]): 32.9 nM
- IC50 (A549; [4]): 32.9 nM
- IC50 (DU145; [12]): 329 nM

SMILES: CCCCCCCCCCCCCCC[C@@H](O)[C@H](C)N [drawing 47, (2S,3R)-2-Amino-3-octadecanol hydrochloride]
- IC50 (MEL28; MEL28, methodology after Berjeron et al, NA=not active, hydrochloride, read-out: Cytotoxicity IC50 MEL28): 311 nM
- IC50 (HT29; [1]): 15.5 nM
- IC50 (P388; P388, methodology after Berjeron et al, NA=not active, hydrochloride, read-out: Cytotoxicity IC50 P388): 31.1 nM
- IC50 (A549; [2]): 31.1 nM
- IC50 (DU145; DU145, methodology after Berjeron et al, NA=not active, hydrochloride, read-out: Cytotoxicity IC50 DU145): 31.1 nM

SMILES: CCCCCCCCCCCCCCCC(=O)[C@@H](C)N
- IC50 (MEL28; [10]): 313 nM
- IC50 (HT29; [3]): 156 nM
- IC50 (P388; [11]): 156 nM
- IC50 (A549; [4]): 156 nM
- IC50 (DU145; [12]): 156 nM

SMILES: CCCCCCCCCCCCCCC[C@@H](OC(=O)C(F)(F)F)[C@H](C)N
- IC50 (HT29; [3]): 20.2 nM
- IC50 (A549; [4]): 20.2 nM

SMILES: CCCCCCCCCCCCCC[C@@H](O)[C@@H](N)CC [drawing 56, (3S,4R)-3-Amino-4-octadecanol]
- IC50 (HT29; [3]): 3.5 nM
- IC50 (A549; [4]): 3.5 nM

SMILES: CCCCCCCCCCCCCCC[C@@H](O)[C@H](C)N [drawing 36, spisulosine-285, reference compound]
- IC50 (MEL28; [10]): 175 nM
- IC50 (HT29; [3]): 35 nM
- IC50 (P388; [11]): 35 nM
- IC50 (A549; [4]): 35 nM
- IC50 (DU145; [12]): 35 nM

SMILES: CCCCCCCCCCCCCC[C@@H](O)[C@H](C)N [drawing 44, (2S,3R)-2-Amino-3-heptadecanol]
- IC50 (MEL28; [5]): 36.8 nM
- IC50 (HT29; [8]): 36.8 nM
- IC50 (P388; [6]): 36.8 nM
- IC50 (A549; [9]): 36.8 nM
- IC50 (DU145; [7]): 36.8 nM

SMILES: CCCCCCCCCCCCCCCCCC[C@@H](O)[C@H](C)N [drawing 53, (2S,3R)-2-Amino-3-heneicosanol hydrochloride]
- IC50 (HT29; [1]): 27.5 nM
- IC50 (A549; [2]): 27.5 nM

SMILES: CCCCCCCCCCCCCCCCC[C@@H](O)[C@H](C)N [drawing 38, (2S,3R)-2-Amino-3-eicosanol]
- IC50 (MEL28; [5]): 319 nM
- IC50 (HT29; [3]): 31.9 nM
- IC50 (P388; [6]): 31.9 nM
- IC50 (A549; [4]): 31.9 nM
- IC50 (DU145; [7]): 31.9 nM

SMILES: CCCCCCCCCCCCCCCC(=NO)C(C)N (stereo not drawn)
- IC50 (MEL28; [10]): 335 nM
- IC50 (HT29; [3]): 335 nM
- IC50 (P388; [11]): 335 nM
- IC50 (A549; [4]): 335 nM
- IC50 (DU145; [12]): 335 nM

SMILES: CCCCCCCCCCC[C@@H](O)[C@H](C)N [(2S,3R)-2-Amino-3-tetradecanol]
- IC50 (MEL28; [5]): 2180 nM
- IC50 (HT29; [8]): 436 nM
- IC50 (P388; [6]): 436 nM
- IC50 (A549; [9]): 2180 nM
- IC50 (DU145; [7]): 2180 nM

SMILES: CCCCCCCCCCCCC/C=C/[C@@H](O)[C@@H](N)CF
- IC50 (HT29; [8]): 33.2 nM
- IC50 (A549; [9]): 33.2 nM

SMILES: CCCCCCCCCCCCCCCCCCCC[C@@H](O)[C@H](C)N [(2S,3R)-2-Amino-3-tricosanol]
- IC50 (HT29; [8]): 2810 nM
- IC50 (P388; [6]): 1410 nM
- IC50 (DU145; [7]): 2810 nM

SMILES: CCCCCCCCCCCCCCCCC[C@@H](O)[C@@H](N)CC [drawing 63, (3S,4R)-3-Amino-4-heneicosanol hydrochloride]
- IC50 (HT29; [1]): 27.5 nM
- IC50 (A549; [2]): 27.5 nM

SMILES: CCCCCCCCCCCCCCC[C@@H](O)[C@H](C)NS(C)(=O)=O
- IC50 (HT29; [3]): 27.5 nM
- IC50 (A549; [4]): 27.5 nM

SMILES: CCCCCCCCCCCCCCC[C@@H](O)[C@H](C)NC
- IC50 (MEL28; [10]): 334 nM
- IC50 (HT29; [3]): 334 nM
- IC50 (P388; [11]): 334 nM
- IC50 (A549; [4]): 334 nM
- IC50 (DU145; [12]): 334 nM

SMILES: CCCCCCCCCCCCCCC[C@@H](OP(=O)(OC)OC)[C@H](C)N [(2S,3R)-2-Amino-O-(dimethylphosphate)-3-octadecanol]
- IC50 (MEL28; Homo sapiens, SK-MEL-28, read-out: Cytotoxicity IC50 MEL28): 1270 nM
- IC50 (HT29; Homo sapiens, HT-29, read-out: Cytotoxicity IC50 HT29): 1270 nM
- IC50 (P388; Mus musculus, P388, read-out: Cytotoxicity IC50 P388): 1270 nM
- IC50 (A549; Homo sapiens, A549, read-out: Cytotoxicity IC50 A549): 1270 nM
- IC50 (DU145; Homo sapiens, DU-145, read-out: Cytotoxicity IC50 DU145): 1270 nM

SMILES: CCCCCCCCCCCCC[C@@H](O)[C@H](C)N [drawing 42, (2S,3R)-2-Amin-3-hexadecanol hydrochloride]
- IC50 (HT29; [1]): 3.4 nM
- IC50 (A549; [2]): 3.4 nM

SMILES: CCCCCCCCCCCCCCC[C@@H](O)[C@@H](N)Cc1ccc(O)cc1 [drawing 70, (2S,3R)-2-Amino-1-(4′-hydroxyphenyl)-3-octadecanol hydrochloride]
- IC50 (HT29; [1]): 242 nM
- IC50 (A549; [2]): 242 nM

SMILES: CCCCCCCCCCCCCCC[C@@H](O)[C@@H](N)CCCN [drawing 71, (4S,5R)-1,4-Diamino-5-eicosanol]
- IC50 (HT29; [8]): 1520 nM
- IC50 (A549; [9]): 1520 nM

SMILES: CCCCCCCCCCCCCCCC[C@@H](O)[C@H](C)N [drawing 49, (2S,3R)-2-Amino-3-nonadecanol hydrochloride]
- IC50 (HT29; [8]): 29.8 nM
- IC50 (A549; [9]): 29.8 nM

SMILES: CCCCCCCCCCCCCCC[C@@H](O)[C@@H](N)CCC [drawing 64, (4S,5R)-4-Amino-5-eicosanol]
- IC50 (HT29; [3]): 159 nM
- IC50 (A549; [4]): 159 nM

SMILES: CCCCCCCCCCCCCCCC[C@@H](O)[C@H](C)NS(C)(=O)=O
- IC50 (HT29; [3]): 265 nM
- IC50 (A549; [4]): 265 nM

SMILES: CCCCCCCCCCCCCCC[C@@H](O)[C@@H](N)Cc1ccc(O)cc1 [drawing 69, (2S,3R)-2-Amino-1-(4′-hydroxyphenyl)-3-octadecanol]
- IC50 (HT29; [3]): 1320 nM
- IC50 (A549; [4]): 1320 nM

SMILES: CCCCCCCCCCCCCCC[C@@H](O)[C@@H](N)CCCN [drawing 72, (4S,5R)-1,4-Diamino-5-eicosanol dihydrochloride]
- IC50 (HT29; HT29, methodology after Berjeron et al, NA=not active, dihydrochloride, read-out: Cytotoxicity IC50 HT29): 1240 nM
- IC50 (A549; A549, methodology after Berjeron et al, NA=not active, dihydrochloride, read-out: Cytotoxicity IC50 A549): 1240 nM

SMILES: CCCCCCCCCCCCCCCCCCC[C@@H](O)[C@H](C)N [(2S,3R)-2-Amino-3-docosanol]
- IC50 (HT29; [8]): 1460 nM
- IC50 (P388; [6]): 293 nM
- IC50 (DU145; [7]): 1460 nM

SMILES: CCCCCCCCCCCCCCC[C@@H](O)[C@@H](N)CCC [drawing 65, (4S,5R)-4-Amino-5-eicosanol hydrochloride]
- IC50 (HT29; [1]): 28.6 nM
- IC50 (A549; [2]): 28.6 nM

SMILES: CCCCCCCCCCCCCC[C@@H](O)[C@H](C)N [drawing 45, (2S,3R)-2-Amino-3-heptadecanol hydrochloride]
- IC50 (HT29; [1]): 32.5 nM
- IC50 (A549; [2]): 32.5 nM

SMILES: CCCCCCCCCCCCCCCCC[C@@H](O)[C@@H](N)CC [drawing 62, (3S,4R)-3-Amino-4-heneicosanol]
- IC50 (HT29; [8]): 30.5 nM
- IC50 (A549; [9]): 30.5 nM

SMILES: CCCCCCCCCCCCCC[C@@H](O)[C@@H](N)CC [drawing 57, (3s,4R)-3-Amino-4-octadecanol hydrocloride]
- IC50 (HT29; [3]): 15.5 nM
- IC50 (A549; [4]): 15.5 nM

SMILES: CCCCCCCCCCCCCCC[C@H](N)[C@H](C)N
- IC50 (HT29; [3]): 280 nM
- IC50 (A549; [4]): 280 nM

SMILES: CCCCCCCCCCCCCCCC[C@@H](O)[C@@H](N)CC [drawing 60, (3S,4R)-3-Amino-4-eicosanol]
- IC50 (HT29; [3]): 319 nM
- IC50 (A549; [4]): 319 nM

SMILES: CCCCCCCCCCCCCCC[C@@H](O)[C@@H](N)CC [drawing 59, (3S,4R)-3-Amino-4-nonadecanol hydrochloride]
- IC50 (HT29; [1]): 2.98 nM
- IC50 (A549; [2]): 2.98 nM
